Laboratory results taken from the NIST ThermoML archive (doi:10.1016/j.tca.2018.11.018).
± gives the expanded uncertainty stated by the source.

Assay: xn = mol fraction of the nth substance listed
Conditions: 100 kPa, Liquid; for viscosity: Falling or rolling sphere viscometry; for mass density: Vibrating tube method

CC[N+]1(C)CCCCC1.[Br-] [N-ethyl-N-methylpiperidinium bromide] + O
Conditions	mass density [kg/m3]	viscosity [mPa·s]
298.15 K, x1 = 0.02	1042.3 ± 1	1.263 ± 0.076
298.15 K, x1 = 0.046	1088.3 ± 1	2.026 ± 0.12
298.15 K, x1 = 0.065	1116.9 ± 1	2.813 ± 0.17
298.15 K, x1 = 0.085	1141.4 ± 1	3.992 ± 0.24
298.15 K, x1 = 0.11	1167.4 ± 1.1	6.16 ± 0.37
298.15 K, x1 = 0.14	1192.2 ± 1.1	11.35 ± 0.69
298.15 K, x1 = 0.18	1217.8 ± 1.1	20.55 ± 1.2
298.15 K, x1 = 0.221	1237.8 ± 1.2	36.06 ± 2.2
298.15 K, x1 = 0.27	1255.2 ± 1.3	68.76 ± 4.2
298.15 K, x1 = 0.321	1268.9 ± 1.5	135.3 ± 9.2
303.15 K, x1 = 0.02	1040.5 ± 1	1.124 ± 0.068
303.15 K, x1 = 0.046	1085.9 ± 1	1.783 ± 0.11
303.15 K, x1 = 0.065	1114.2 ± 1	2.444 ± 0.15
303.15 K, x1 = 0.085	1138.5 ± 1	3.419 ± 0.21
303.15 K, x1 = 0.11	1164.3 ± 1.1	5.175 ± 0.31
303.15 K, x1 = 0.14	1189 ± 1.1	9.449 ± 0.57
303.15 K, x1 = 0.18	1214.4 ± 1.1	16.67 ± 1
303.15 K, x1 = 0.221	1234.4 ± 1.2	28.38 ± 1.7
303.15 K, x1 = 0.27	1251.8 ± 1.3	51.92 ± 3.1
303.15 K, x1 = 0.321	1265.5 ± 1.4	98.65 ± 6.3
308.15 K, x1 = 0.02	1038.6 ± 1	1.011 ± 0.061
308.15 K, x1 = 0.046	1083.5 ± 1	1.59 ± 0.096
308.15 K, x1 = 0.065	1111.5 ± 1	2.147 ± 0.13
308.15 K, x1 = 0.085	1135.5 ± 1	2.967 ± 0.18
308.15 K, x1 = 0.11	1161.2 ± 1.1	4.41 ± 0.27
308.15 K, x1 = 0.14	1185.7 ± 1.1	7.861 ± 0.48
308.15 K, x1 = 0.18	1211 ± 1.1	13.6 ± 0.82
308.15 K, x1 = 0.221	1230.9 ± 1.2	22.48 ± 1.4
308.15 K, x1 = 0.27	1248.4 ± 1.3	39.91 ± 2.4
308.15 K, x1 = 0.321	1262.1 ± 1.4	73.14 ± 4.5
313.15 K, x1 = 0.02	1036.4 ± 1	0.915 ± 0.055
313.15 K, x1 = 0.046	1081.1 ± 1	1.421 ± 0.086
313.15 K, x1 = 0.065	1108.7 ± 1	1.901 ± 0.12
313.15 K, x1 = 0.085	1132.5 ± 1	2.595 ± 0.16
313.15 K, x1 = 0.11	1158 ± 1	3.8 ± 0.23
313.15 K, x1 = 0.14	1182.3 ± 1.1	6.584 ± 0.4
313.15 K, x1 = 0.18	1207.5 ± 1.1	11.17 ± 0.68
313.15 K, x1 = 0.221	1227.4 ± 1.2	18.06 ± 1.1
313.15 K, x1 = 0.27	1244.9 ± 1.3	31 ± 1.9
313.15 K, x1 = 0.321	1258.6 ± 1.4	54.37 ± 3.3
318.15 K, x1 = 0.02	1034.1 ± 1	0.834 ± 0.05
318.15 K, x1 = 0.046	1078.7 ± 1	1.279 ± 0.077
318.15 K, x1 = 0.065	1105.9 ± 1	1.697 ± 0.1
318.15 K, x1 = 0.085	1129.5 ± 1	2.287 ± 0.14
318.15 K, x1 = 0.11	1154.8 ± 1	3.301 ± 0.2
318.15 K, x1 = 0.14	1178.9 ± 1.1	5.574 ± 0.34
318.15 K, x1 = 0.18	1204.1 ± 1.1	9.251 ± 0.56
318.15 K, x1 = 0.221	1223.9 ± 1.2	14.7 ± 0.89
318.15 K, x1 = 0.27	1241.4 ± 1.3	24.63 ± 1.5
318.15 K, x1 = 0.321	1255.2 ± 1.4	42.07 ± 2.6
323.15 K, x1 = 0.02	1031.6 ± 1	0.767 ± 0.046
323.15 K, x1 = 0.046	1075.9 ± 1	1.162 ± 0.07
323.15 K, x1 = 0.065	1102.9 ± 1	1.522 ± 0.092
323.15 K, x1 = 0.085	1126.3 ± 1	2.045 ± 0.12
323.15 K, x1 = 0.11	1151.5 ± 1	2.895 ± 0.17
323.15 K, x1 = 0.14	1175.5 ± 1.1	4.742 ± 0.29
323.15 K, x1 = 0.18	1200.6 ± 1.1	7.76 ± 0.47
323.15 K, x1 = 0.221	1220.4 ± 1.2	12.15 ± 0.74
323.15 K, x1 = 0.27	1237.9 ± 1.3	19.99 ± 1.2
323.15 K, x1 = 0.321	1251.8 ± 1.4	33.03 ± 2
328.15 K, x1 = 0.02	1029 ± 1	0.709 ± 0.043
328.15 K, x1 = 0.046	1073 ± 1	1.063 ± 0.064
328.15 K, x1 = 0.065	1099.9 ± 1	1.378 ± 0.083
328.15 K, x1 = 0.085	1123.1 ± 1	1.83 ± 0.11
328.15 K, x1 = 0.11	1148.1 ± 1	2.563 ± 0.15
328.15 K, x1 = 0.14	1172.1 ± 1.1	4.087 ± 0.25
328.15 K, x1 = 0.18	1197 ± 1.1	6.616 ± 0.4
328.15 K, x1 = 0.221	1216.9 ± 1.2	10.15 ± 0.62
328.15 K, x1 = 0.27	1234.4 ± 1.3	16.44 ± 1
328.15 K, x1 = 0.321	1248.3 ± 1.4	26.76 ± 1.6
333.15 K, x1 = 0.02	1026.3 ± 1	0.656 ± 0.04
333.15 K, x1 = 0.046	1070.2 ± 1	0.976 ± 0.059
333.15 K, x1 = 0.065	1096.7 ± 1	1.249 ± 0.076
333.15 K, x1 = 0.085	1119.9 ± 1	1.65 ± 0.1
333.15 K, x1 = 0.11	1144.7 ± 1	2.285 ± 0.14
333.15 K, x1 = 0.14	1168.6 ± 1.1	3.555 ± 0.21
333.15 K, x1 = 0.18	1193.5 ± 1.1	5.691 ± 0.34
333.15 K, x1 = 0.221	1213.4 ± 1.2	8.658 ± 0.53
333.15 K, x1 = 0.27	1230.9 ± 1.3	13.81 ± 0.84
333.15 K, x1 = 0.321	1244.9 ± 1.4	21.95 ± 1.3
338.15 K, x1 = 0.02	1023.5 ± 1	0.616 ± 0.037
338.15 K, x1 = 0.046	1067.1 ± 1	0.9 ± 0.054
338.15 K, x1 = 0.065	1093.5 ± 1	1.142 ± 0.069
338.15 K, x1 = 0.085	1116.9 ± 1	1.495 ± 0.09
338.15 K, x1 = 0.11	1141.4 ± 1	2.046 ± 0.12
338.15 K, x1 = 0.14	1165.1 ± 1.1	3.13 ± 0.19
338.15 K, x1 = 0.18	1189.9 ± 1.1	4.925 ± 0.3
338.15 K, x1 = 0.221	1209.8 ± 1.2	7.418 ± 0.45
338.15 K, x1 = 0.27	1227.4 ± 1.3	11.66 ± 0.71
338.15 K, x1 = 0.321	1241.4 ± 1.4	18.17 ± 1.1
343.15 K, x1 = 0.02	1020.4 ± 1	0.579 ± 0.035
343.15 K, x1 = 0.046	1063.9 ± 1	0.835 ± 0.05
343.15 K, x1 = 0.065	1090.3 ± 1	1.05 ± 0.064
343.15 K, x1 = 0.085	1113.8 ± 1	1.363 ± 0.082
343.15 K, x1 = 0.11	1137.9 ± 1	1.845 ± 0.11
343.15 K, x1 = 0.14	1161.5 ± 1.1	2.616 ± 0.16
343.15 K, x1 = 0.18	1186.3 ± 1.1	4.343 ± 0.26
343.15 K, x1 = 0.221	1206.2 ± 1.2	6.433 ± 0.39
343.15 K, x1 = 0.27	1223.9 ± 1.3	10.03 ± 0.61
343.15 K, x1 = 0.321	1238 ± 1.4	15.35 ± 0.94
348.15 K, x1 = 0.02	1016.6 ± 1	0.548 ± 0.033
348.15 K, x1 = 0.046	1060.6 ± 1	0.778 ± 0.047
348.15 K, x1 = 0.065	1087 ± 1	0.967 ± 0.058
348.15 K, x1 = 0.085	1110.3 ± 1	1.247 ± 0.075
348.15 K, x1 = 0.11	1134.3 ± 1	1.67 ± 0.1
348.15 K, x1 = 0.14	1157.9 ± 1.1	2.352 ± 0.14
348.15 K, x1 = 0.18	1182.7 ± 1.1	3.798 ± 0.23
348.15 K, x1 = 0.221	1202.6 ± 1.2	5.613 ± 0.34
348.15 K, x1 = 0.27	1220.3 ± 1.3	8.668 ± 0.53
348.15 K, x1 = 0.321	1234.5 ± 1.4	13.11 ± 0.8
